Assay results from ChEMBL document CHEMBL6114971, “Design, synthesis and biological evaluation of benzo[b]thiophene analogues as novel ferroptosis inhibitor that inhibit fibrosarcoma cell proliferation” (Bioorg Med Chem, 2025).

Key:
[1] = test system: A549; test: Antiproliferative activity against human A549 cells measured after 72 hrs by MTT assay; assay type: functional, cell-based; conditions: A549, 72 h
[2] = test system: 4T1; test: Antiproliferative activity against mouse 4T1 cells measured after 72 hrs by MTT assay; assay type: functional, cell-based; conditions: 4T1, 72 h
[3] = test system: HT-1080; test: Antiproliferative activity against human HT-1080 cells measured after 72 hrs by MTT assay; assay type: functional, cell-based; conditions: HT-1080, 72 h
[4] = test system: MGC-803; test: Antiproliferative activity against human MGC-803 cells measured after 72 hrs by MTT assay; assay type: functional, cell-based; conditions: MGC-803, 72 h
[5] = test system: HT-1080; test: Antiproliferative activity against human HT-1080 cells measured after 72 hrs in presence of ferroptosis inhibitor Fer-1 by MTT assay; assay type: functional, cell-based; conditions: HT-1080, 72 h
[6] = Selectivity ratio of IC50 for antiproliferative activity against human HT-1080 cells in presence of ferroptosis inhibitor Fer-1 to IC50 for antiproliferative activity against human HT-1080 cells; assay type: functional
[7] = Cytotoxicity against human GES1 cells measured after 72 hrs by MTT assay; assay type: toxicity, cell-based
[8] = Cytotoxicity against HUVEC measured after 72 hrs by MTT assay; assay type: toxicity, cell-based; conditions: human
[9] = Selectivity index, ratio of IC50 for human GES1 cells to IC50 for human HT-1080; assay type: toxicity; conditions: GES1 cells versus HT-1080 cells, read-out: Ratio IC50
[10] = Selectivity index, ratio of IC50 for HUVEC to IC50 for human HT-1080; assay type: toxicity; conditions: HUVEC versus HT-1080 cells, read-out: Ratio IC50
[11] = molecular target: T1, Phospholipid hydroperoxide glutathione peroxidase GPX4 (Homo sapiens) (UniProt P36969); test: Inhibition of GPX4 activity in human HT-1080 cells assessed as down regulation of GPX4 level at 2 uM measured after 24 hrs by Western blotting analysis; assay type: cell-based
T1 sequence (whole entry): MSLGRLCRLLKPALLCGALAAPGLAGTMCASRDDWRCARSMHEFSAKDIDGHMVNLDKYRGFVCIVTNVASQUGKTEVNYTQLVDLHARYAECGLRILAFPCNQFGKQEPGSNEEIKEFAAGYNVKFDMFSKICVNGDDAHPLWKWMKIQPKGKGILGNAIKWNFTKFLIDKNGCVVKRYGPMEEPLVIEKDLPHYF

[12] = molecular target: T1, Phospholipid hydroperoxide glutathione peroxidase GPX4 (Homo sapiens); test: Inhibition of GPX4 activity in human HT-1080 cells assessed as down regulation of GPX4 level measured after 24 hrs by Western blotting analysis; assay type: cell-based; conditions: dose 0.25-4 µM
[13] = test system: HT-1080; test: Reduction in GPX4 mRNA level in human HT-1080 cells measured after 24 hrs by qRT-PCR analysis; assay type: functional, cell-based; conditions: dose 0.5-4 µM
[14] = test system: HT-1080; test: Induction of ferroptosis in human HT-1080 cells assessed as increase in intracellular Fe2+ level measured after 24 hrs; assay type: functional, cell-based; conditions: dose 0.5-4 µM
[15] = test system: HT-1080; test: Induction of ROS generation in human HT-1080 cells assessed as intracellular ROS level at 0.5 uM measured after 24 hrs by DCFH-DA probe based flow cytometry (reference value: 33%); assay type: functional
[16] = test system: HT-1080; test: Induction of ROS generation in human HT-1080 cells assessed as intracellular ROS level at 1 uM measured after 24 hrs by DCFH-DA probe based flow cytometry (reference value: 33%); assay type: functional
[17] = test system: HT-1080; test: Induction of ROS generation in human HT-1080 cells assessed as intracellular ROS level at 2 uM measured after 24 hrs by DCFH-DA probe based flow cytometry (reference value: 33%); assay type: functional
[18] = test system: HT-1080; test: Induction of ROS generation in human HT-1080 cells assessed as intracellular ROS level at 2 uM measured after 24 hrs in presence of ferroptosis inhibitor Fer-1 by DCFH-DA probe based flow cytometry (reference value: 33%); assay type: functional
[19] = test system: HT-1080; test: Induction of ROS generation in human HT-1080 cells assessed as increase in intracellular ROS level measured after 24 hrs by DCFH-DA probe based flow cytometry; assay type: functional, cell-based; conditions: dose 0.5-2 µM
[20] = test system: HT-1080; test: Induction of ferroptosis in human HT-1080 cells assessed as reduction in GSH level measured after 24 hrs; assay type: functional, cell-based; conditions: dose 0.5-4 µM
[21] = test system: HT-1080; test: Induction of ferroptosis in human HT-1080 cells assessed as increase in MDA level measured after 24 hrs; assay type: functional, cell-based; conditions: dose 0.5-4 µM
[22] = test system: HT-1080; test: Cell cycle arrest in human HT-1080 cells assessed as accumulation of cells at G1-phase at 0.5 uM measured after 24 hrs by propidium iodide staining based flow cytometry (reference value: 51.3%); assay type: functional
[23] = test system: HT-1080; test: Cell cycle arrest in human HT-1080 cells assessed as accumulation of cells at S-phase at 0.5 uM measured after 24 hrs by propidium iodide staining based flow cytometry (reference value: 21.1%); assay type: functional
[24] = test system: HT-1080; test: Cell cycle arrest in human HT-1080 cells assessed as accumulation of cells at G2/M-phase at 0.5 uM measured after 24 hrs by propidium iodide staining based flow cytometry (reference value: 27%); assay type: functional
[25] = test system: HT-1080; test: Cell cycle arrest in human HT-1080 cells assessed as accumulation of cells at G1-phase at 1 uM measured after 24 hrs by propidium iodide staining based flow cytometry (reference value: 51.3%); assay type: functional
[26] = test system: HT-1080; test: Cell cycle arrest in human HT-1080 cells assessed as accumulation of cells at S-phase at 1 uM measured after 24 hrs by propidium iodide staining based flow cytometry (reference value: 21.1%); assay type: functional
[27] = test system: HT-1080; test: Cell cycle arrest in human HT-1080 cells assessed as accumulation of cells at G2/M-phase at 1 uM measured after 24 hrs by propidium iodide staining based flow cytometry (reference value: 27%); assay type: functional
[28] = test system: HT-1080; test: Cell cycle arrest in human HT-1080 cells assessed as accumulation of cells at G1-phase at 2 uM measured after 24 hrs by propidium iodide staining based flow cytometry (reference value: 51.3%); assay type: functional
[29] = test system: HT-1080; test: Cell cycle arrest in human HT-1080 cells assessed as accumulation of cells at S-phase at 2 uM measured after 24 hrs by propidium iodide staining based flow cytometry (reference value: 21.1%); assay type: functional
[30] = test system: HT-1080; test: Cell cycle arrest in human HT-1080 cells assessed as accumulation of cells at G2/M-phase at 2 uM measured after 24 hrs by propidium iodide staining based flow cytometry (reference value: 27%); assay type: functional

In the case of `COc1cc(N(Cc2csc3ccccc23)C(=O)CCl)cc(OC)c1OC`, the IC50 [1] is reported as 17.2 µM, the IC50 [2] is reported as 16.1 µM and the IC50 [3] is reported as 0.94 µM. For the same compound, the IC50 [4] was 4.48 µM, the IC50 [5] was 3.03 µM and the “Ratio IC50” value [6] was 3.21. It also gave an IC50 at 72 h [7] of 103 µM, an IC50 at 72 h [8] of 26.1 µM and a selectivity ratio [9] of 109. For the same compound, the selectivity ratio [10] was 27.7, the inhibition [11] was “Active; Significant Down Regulation Observed” and the inhibition [12] was “Dose-dependent-effect”. The Activity [13] was “Dose-dependent-effect”, the Activity [14] was “Dose-dependent-effect” and the Activity [15] was 33%. It also gave an Activity [16] of 64.2%, an Activity [17] of 88.5% and an Activity [18] of 31.2%. The Activity [19] was “Dose-dependent-effect”, the Activity [20] was “Dose-dependent-effect” and the Activity [21] was “Dose-dependent-effect”. The Activity [22] was 48%, the Activity [23] was 28.5% and the Activity [24] was 23.1%. It also gave an Activity [25] of 38.8%, an Activity [26] of 37% and an Activity [27] of 23.8%. For the same compound, the Activity [28] was 35.5%, the Activity [29] was 40.7% and the Activity [30] was 23.9%.
